The values below come from patent publication US12534474B2, “Dihydrofuropyridine derivatives as rho-kinase inhibitors” (CHIESI FARMACEUTICI S.P.A., priority 2020, dated 2026).

Broadly, the Ki is the equilibrium dissociation constant of an inhibitor or competing ligand from its target.

Common to all, as to format: biochemical
The target of test [1] is T1, ROCK1 (Homo sapiens, UniProt Q13464). Briefly: In vitro Rho kinase inhibitory activity assay, ADP-Glo, Method A (ATP 10 μM). To be noted: read-out: Method A ROCK 1 (Ki). The method, then: (§1) In Vitro Inhibitory Activity Assay Description (Method A)
T1 sequence (Q13464 whole entry): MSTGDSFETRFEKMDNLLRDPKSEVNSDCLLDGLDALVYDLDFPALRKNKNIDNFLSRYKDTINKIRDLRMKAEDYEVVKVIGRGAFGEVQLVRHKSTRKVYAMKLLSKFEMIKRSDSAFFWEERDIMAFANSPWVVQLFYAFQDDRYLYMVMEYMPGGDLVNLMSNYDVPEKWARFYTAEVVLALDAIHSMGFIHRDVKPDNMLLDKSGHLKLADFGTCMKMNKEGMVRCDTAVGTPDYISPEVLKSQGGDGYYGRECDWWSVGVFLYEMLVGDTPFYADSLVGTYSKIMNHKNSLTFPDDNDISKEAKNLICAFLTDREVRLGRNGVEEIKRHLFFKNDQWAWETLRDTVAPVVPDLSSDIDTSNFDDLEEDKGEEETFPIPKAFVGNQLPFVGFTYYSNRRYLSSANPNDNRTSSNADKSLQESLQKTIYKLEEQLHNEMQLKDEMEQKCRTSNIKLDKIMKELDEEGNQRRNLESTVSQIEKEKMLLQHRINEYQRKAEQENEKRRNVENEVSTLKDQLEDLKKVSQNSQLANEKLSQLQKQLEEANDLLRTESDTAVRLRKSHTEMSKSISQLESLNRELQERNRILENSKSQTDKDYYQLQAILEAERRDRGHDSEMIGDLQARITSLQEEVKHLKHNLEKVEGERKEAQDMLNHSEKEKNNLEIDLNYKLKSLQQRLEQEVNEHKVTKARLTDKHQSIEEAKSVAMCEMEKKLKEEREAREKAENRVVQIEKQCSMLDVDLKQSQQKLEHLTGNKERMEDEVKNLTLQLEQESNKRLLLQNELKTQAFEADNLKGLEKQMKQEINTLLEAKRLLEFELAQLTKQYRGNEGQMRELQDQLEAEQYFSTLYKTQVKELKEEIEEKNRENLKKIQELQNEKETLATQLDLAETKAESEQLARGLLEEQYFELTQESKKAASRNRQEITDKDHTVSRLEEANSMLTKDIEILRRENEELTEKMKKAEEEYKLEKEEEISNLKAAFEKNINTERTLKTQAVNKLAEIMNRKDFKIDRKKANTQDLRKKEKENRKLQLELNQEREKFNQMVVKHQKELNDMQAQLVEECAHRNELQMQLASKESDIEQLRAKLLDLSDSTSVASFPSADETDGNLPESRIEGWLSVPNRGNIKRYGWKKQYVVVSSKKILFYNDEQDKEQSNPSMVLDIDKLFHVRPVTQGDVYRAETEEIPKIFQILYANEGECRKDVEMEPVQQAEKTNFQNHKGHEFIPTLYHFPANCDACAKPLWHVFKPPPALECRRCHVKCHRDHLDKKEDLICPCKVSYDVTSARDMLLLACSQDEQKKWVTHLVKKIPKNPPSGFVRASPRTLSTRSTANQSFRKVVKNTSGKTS
(§2) The effectiveness of compounds of the present invention to inhibit Rho kinase activity can be determined in a 10 μL assay containing 40 mM Tris pH7.5, 20 mM MgCl2 0.1 mg/mL BSA, 50 μM DTT and 2.5 μM peptide substrate (Myelin Basic Protein) using an ADP-Glo kit (Promega). Compounds were dissolved in DMSO such that the final concentration of DMSO was 1% in the assay. All reactions/incubations are performed at 25° C. Compound (2 μL) and either Rho kinase 1 or 2 (4 μL) were mixed and incubated for 30 min. Reactions were initiated by addition of ATP (4 μL) such that the final concentration of ATP in the assay was 10 μM. After a 1 hour incubation 10 μL of ADP-Glo Reagent was added and after a further 45 minute incubation 20 μL of Kinase Detection Buffer was added and the mixture incubated for a further 30 minutes. The luminescent signal was measured on a luminometer. […] Compounds were tested in dose-response format and the inhibition of kinase activity was calculated at each concentration of compound. To determine the IC50 (concentration of compound required to inhibit 50% of the enzyme activity) data were fit to a plot of % inhibition vs Log10 compound concentration using a sigmoidal fit with a variable slope and fixing the maximum to 100% and the minimum to 0%. To determine the Ki values the Cheng-Prusoff equation was utilized (Ki=IC50/(1+[S]/Km).
For orientation: ADP-Glo first removes unused ATP, then detects ADP through luciferase.

Test [2] concerns the target T2, ROCK2 (Homo sapiens, UniProt O75116). Described as above. The conditions noted are these: read-out: Method A ROCK 2 (Ki). The procedure:
as §1, §2

Test [3] has as its target PKA (Homo sapiens, UniProt P17612). Put plainly: In vitro inhibitory activity assay for PKA, ADP-Glo, reported as selectivity ratio vs ROCK2. The conditions noted are these: Ki for PKA divided by Ki of ROCK2 (Method B). The method, then: In Vitro Inhibitory Activity Assay Description for PKA
The effectiveness of compounds of the present invention to inhibit PKA activity can be determined in a 10 μL assay containing 40 mM Tris pH7.5, 20 mM MgCl2 0.1 mg/mL BSA, 50 μM DTT and 260 μM peptide substrate (kemptide) using an ADP-Glo kit (Promega). Compounds were dissolved in DMSO such that the final concentration of DMSO was 1% in the assay. All reactions/incubations are performed at 25° C. Compound and PKA enzyme (6 μL) were mixed and incubated for 30 min. Reactions were initiated by addition of ATP (4 μL) such that the final concentration of ATP in the assay was 10 μM. After a 30 minute incubation 10 μL of ADP-Glo Reagent was added and after a further 1 hour incubation 20 μL of Kinase Detection Buffer was added and the mixture incubated for a further 45 minutes. The luminescent signal was measured on a luminometer. […] Compounds were tested in dose-response format and the inhibition of kinase activity was calculated at each concentration of compound. To determine the IC50 (concentration of compound required to inhibit 50% of the enzyme activity) data were fit to a plot of % inhibition vs Log10 compound concentration using a sigmoidal fit with a variable slope and fixing the maximum to 100% and the minimum to 0%. To determine the Ki values the Cheng-Prusoff equation was utilized (Ki=IC50/(1+[S]/Km).
In vitro inhibitory activities for PKA were reported as selectivity ratio vs. ROCK2. Selectivity ratio PKA/ROCK2 was calculated by dividing the Ki value for PKA by Ki value of ROCK2 (Method B) and reported into table 1.

Test [4] deals with T1, ROCK1. Put plainly: In vitro Rho kinase inhibitory activity assay, ADP-Glo, Method B (ATP 200 μM). To be noted: read-out: Method B ROCK 1 (Ki). The procedure:
(§3) In Vitro Inhibitory Activity Assay Description (Method B)
as §2, with “(2 ul)” for “(2 μL)”, “was 200” for “was 10”, “20 ul” for “20 μL”, “vs Log 10” for “vs Log10”

Test [5] deals with T2, ROCK2. Described as above. The conditions noted are these: read-out: Method B ROCK 2 (Ki). The method, then: as §3
as §2, with “(2 ul)” for “(2 μL)”, “was 200” for “was 10”, “20 ul” for “20 μL”, “vs Log 10” for “vs Log10”

T2 sequence (O75116 whole entry): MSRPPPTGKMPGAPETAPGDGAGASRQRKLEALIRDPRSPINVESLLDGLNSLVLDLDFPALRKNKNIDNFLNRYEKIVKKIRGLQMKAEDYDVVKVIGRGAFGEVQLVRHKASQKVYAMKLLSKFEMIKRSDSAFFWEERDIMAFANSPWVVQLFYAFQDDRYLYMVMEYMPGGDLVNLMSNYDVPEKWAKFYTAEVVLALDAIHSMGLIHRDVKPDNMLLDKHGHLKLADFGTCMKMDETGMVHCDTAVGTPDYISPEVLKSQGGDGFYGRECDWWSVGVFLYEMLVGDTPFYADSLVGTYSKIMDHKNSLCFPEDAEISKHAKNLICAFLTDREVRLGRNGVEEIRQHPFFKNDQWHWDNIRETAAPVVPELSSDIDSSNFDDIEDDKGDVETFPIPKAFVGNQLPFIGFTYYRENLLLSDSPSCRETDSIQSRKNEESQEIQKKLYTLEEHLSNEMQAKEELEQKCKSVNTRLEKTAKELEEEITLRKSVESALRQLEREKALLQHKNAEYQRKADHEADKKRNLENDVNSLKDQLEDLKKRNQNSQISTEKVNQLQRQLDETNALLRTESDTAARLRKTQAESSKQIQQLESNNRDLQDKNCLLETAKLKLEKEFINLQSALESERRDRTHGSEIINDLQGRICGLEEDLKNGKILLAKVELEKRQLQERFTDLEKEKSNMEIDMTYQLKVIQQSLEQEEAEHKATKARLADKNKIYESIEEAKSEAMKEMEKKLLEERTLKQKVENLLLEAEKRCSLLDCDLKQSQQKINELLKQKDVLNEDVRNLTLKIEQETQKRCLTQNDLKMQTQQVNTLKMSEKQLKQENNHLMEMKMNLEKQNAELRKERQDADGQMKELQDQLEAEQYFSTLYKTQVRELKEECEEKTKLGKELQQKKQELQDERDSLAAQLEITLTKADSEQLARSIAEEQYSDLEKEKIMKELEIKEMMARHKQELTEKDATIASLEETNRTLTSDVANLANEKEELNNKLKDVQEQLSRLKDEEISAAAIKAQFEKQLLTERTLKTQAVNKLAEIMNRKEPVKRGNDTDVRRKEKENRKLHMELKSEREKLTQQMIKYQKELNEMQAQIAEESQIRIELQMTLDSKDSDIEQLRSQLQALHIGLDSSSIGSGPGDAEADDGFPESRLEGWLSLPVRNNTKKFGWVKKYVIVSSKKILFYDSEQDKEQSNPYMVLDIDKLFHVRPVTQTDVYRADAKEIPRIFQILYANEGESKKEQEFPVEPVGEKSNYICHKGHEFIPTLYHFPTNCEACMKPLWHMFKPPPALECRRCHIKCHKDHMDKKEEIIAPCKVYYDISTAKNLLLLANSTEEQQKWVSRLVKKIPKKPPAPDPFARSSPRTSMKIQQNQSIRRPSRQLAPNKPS

In the case of `CN1CCc2nc(C(=O)Nc3cccc(CNc4ncc(-c5ccncc5)c5c4CCO5)c3)sc2C1` [Example 34, 5-methyl-N-(3-(((7-(pyridin-4-yl)-2,3-dihydrofuro[3,2-c]pyridin-4-yl)amino)methyl)phenyl)-4,5,6,7-tetrahydrothiazolo[5,4-c]pyridine-2-carboxamide], the Ki in test [1] and in test [2] was ≤ 3 nM each time.

On to `CN(C)Cc1cccc(CNC(=O)c2cccc(CNc3ncc(-c4ccncc4)c4c3CCO4)c2)c1` [Example 27, N-(3-((dimethylamino)methyl)benzyl)-3-(((7-(pyridin-4-yl)-2,3-dihydrofuro[3,2-c]pyridin-4-yl)amino)methyl)benzamide], for which the inhibitory constant (Ki) in test [1] and in test [2] was ≤ 3 nM each time.

Consider `Cn1ncc2cc(C(=O)Nc3cccc(CNc4ncc(-c5ccncc5)c5c4CCO5)c3)ccc21` [Example 37, 1-methyl-N-(3-(((7-(pyridin-4-yl)-2,3-dihydrofuro[3,2-c]pyridin-4-yl)amino)methyl)phenyl)-1H-indazole-5-carboxamide], for which the Ki in test [1] and in test [2] was ≤ 3 nM in each case.

`O=C(Nc1cccc(CNc2ncc(-c3ccncc3)c3c2CCO3)c1)c1nc2c(s1)CN(C1COC1)CC2` [Example 38, 5-(oxetan-3-yl)-N-(3-(((7-(pyridin-4-yl)-2,3-dihydrofuro[3,2-c]pyridin-4-yl)amino)methyl)phenyl)-4,5,6,7-tetrahydrothiazolo[5,4-c]pyridine-2-carboxamide]: the Ki in test [1] and in test [2] was ≤ 3 nM throughout.

Turning to `O=C(NCCc1cccnc1)c1cccc(CNc2ncc(-c3ccncc3)c3c2CCO3)c1` [Example 29, N-(2-(pyridin-3-yl)ethyl)-3-(((7-(pyridin-4-yl)-2,3-dihydrofuro[3,2-c]pyridin-4-yl)amino)methyl)benzamide], the inhibition constant (Ki) in test [1] and in test [2] was ≤ 3 nM in each case.

For `CN(C)CCn1ccc2cc(C(=O)Nc3cccc(CNc4ncc(-c5ccncc5)c5c4CCO5)c3)ccc21` [Example 39, 1-(2-(dimethylamino)ethyl)-N-(3-(((7-(pyridin-4-yl)-2,3-dihydrofuro[3,2-c]pyridin-4-yl)amino)methyl)phenyl)-1H-indole-5-carboxamide], the Ki in test [1] and in test [2] was ≤ 3 nM throughout.

As to `Cn1cnc(CNC(=O)c2cccc(CNc3ncc(-c4ccncc4)c4c3CCO4)c2)c1` [Example 3, N-((1-methyl-1H-imidazol-4-yl)methyl)-3-(((7-(pyridin-4-yl)-2,3-dihydrofuro[3,2-c]pyridin-4-yl)amino)methyl)benzamide], the “Ratio (PKA/ROCK2)” value in test [3] was “*** (ratio≥10)”. Moreover, the inhibitory constant (Ki) is 3 to 30 nM in test [4] and ≤ 3 nM in test [5].

For `O=C(NC1CC2CN(C3COC3)CC2C1)c1cccc(CNc2ncc(-c3ccncc3)c3c2CCO3)c1` (single isomer, unassigned) [Example 43b, N-(2-(oxetan-3-yl)octahydrocyclopenta[c]pyrrol-5-yl)-3-(((7-(pyridin-4-yl)-2,3-dihydrofuro[3,2-c]pyridin-4-yl)amino)methyl)benzamide], the “Ratio (PKA/ROCK2)” value in test [3] is “*** (ratio≥10)”. The Ki in test [4] and in test [5] was ≤ 3 nM throughout.

Consider `O=C(Nc1ccncc1)c1cccc(CNc2ncc(-c3ccncc3)c3c2CCO3)c1` [Example 11, N-(pyridin-4-yl)-3-(((7-(pyridin-4-yl)-2,3-dihydrofuro[3,2-c]pyridin-4-yl)amino)methyl)benzamide], for which the “Ratio (PKA/ROCK2)” value in test [3] is given as “*** (ratio≥10)”. Besides, the inhibition constant Ki in test [4] and in test [5] was ≤ 3 nM in each case.

Consider `CN(C)CCOc1ccc(NC(=O)c2cccc(CNc3ncc(-c4ccncc4)c4c3CCO4)c2)nc1` [Example 56, N-(5-(2-(dimethylamino)ethoxy)pyridin-2-yl)-3-(((7-(pyridin-4-yl)-2,3-dihydrofuro[3,2-c]pyridin-4-yl)amino)methyl)benzamide], for which the “Ratio (PKA/ROCK2)” value in test [3] was “*** (ratio≥10)”. For the same molecule, the Ki in test [4] and in test [5] was ≤ 3 nM in each case.

Regarding `COc1ccc(NC(=O)c2cccc(CNc3ncc(-c4ccncc4)c4c3CCO4)c2)nc1` [Example 14, N-(5-methoxypyridin-2-yl)-3-(((7-(pyridin-4-yl)-2,3-dihydrofuro[3,2-c]pyridin-4-yl)amino)methyl)benzamide], in test [3], the “Ratio (PKA/ROCK2)” value was “*** (ratio≥10)”. The inhibition constant (Ki) in test [4] and in test [5] was ≤ 3 nM each time.

Turning to `O=C(NCC1CC1)c1cccc(CNc2ncc(-c3ccncc3)c3c2CCO3)c1` [Example 12, N-(cyclopropylmethyl)-3-(((7-(pyridin-4-yl)-2,3-dihydrofuro[3,2-c]pyridin-4-yl)amino)methyl)benzamide], the “Ratio (PKA/ROCK2)” value in test [3] is on record as “** (5≤ratio<10)”. The figures for the Ki in test [4] and in test [5] were ≤ 3 nM and 3 to 30 nM, respectively.

With `O=C(NCCCF)c1cccc(CNc2ncc(-c3ccncc3)c3c2CCO3)c1` [Example 4, N-(3-fluoropropyl)-3-(((7-(pyridin-4-yl)-2,3-dihydrofuro[3,2-c]pyridin-4-yl)amino)methyl)benzamide], in test [3], the “Ratio (PKA/ROCK2)” value is given as “*** (ratio≥10)”. Besides, the Ki in test [4] and in test [5] was 3 to 30 nM in each case.

Take `CNC(=O)c1cccc(CNc2ncc(-c3cc[nH]c(=O)c3)c3c2CCO3)c1` [Example B, N-methyl-3-(((7-(2-oxo-1,2-dihydropyridin-4-yl)-2,3-dihydrofuro[3,2-c]pyridin-4-yl)amino)methyl)benzamide, reference compound]: in test [3], the “Ratio (PKA/ROCK2)” value is given as “*** (ratio≥10)”. Besides, the Ki in test [4] and in test [5] was > 30 nM each time.

With `O=C(NCc1ccon1)c1cccc(CNc2ncc(-c3ccncc3)c3c2CCO3)c1` [Example 6, N-(isoxazol-3-ylmethyl)-3-(((7-(pyridin-4-yl)-2,3-dihydrofuro[3,2-c]pyridin-4-yl)amino)methyl)benzamide], the “Ratio (PKA/ROCK2)” value in test [3] is “*** (ratio≥10)”. For the same molecule, the Ki in test [4] was 3 to 30 nM; in test [5], ≤ 3 nM.

As to `Cn1ccc(CNC(=O)c2cccc(CNc3ncc(-c4ccncc4)c4c3CCO4)c2)n1` [Example 19, N-((1-methyl-1H-pyrazol-3-yl)methyl)-3-(((7-(pyridin-4-yl)-2,3-dihydrofuro[3,2-c]pyridin-4-yl)amino)methyl)benzamide], in test [3], the “Ratio (PKA/ROCK2)” value is listed as “*** (ratio≥10)”. Also, the Ki is 3 to 30 nM in test [4] and ≤ 3 nM in test [5].

As to `CN1CCOC(CNC(=O)c2cccc(CNc3ncc(-c4ccncc4)c4c3CCO4)c2)C1` (stereo not drawn) [Example 10, N-((4-methylmorpholin-2-yl)methyl)-3-(((7-(pyridin-4-yl)-2,3-dihydrofuro[3,2-c]pyridin-4-yl)amino)methyl)benzamide], the “Ratio (PKA/ROCK2)” value in test [3] is “*** (ratio≥10)”. Moreover, the Ki in test [4] and in test [5] was ≤ 3 nM in each case.
